Test results from paper PMC7390954 (Frontiers in Microbiology, 2020).
≈ marks a conversion by molar mass, not a printed value. Peptide text beside a SMILES is read from it.

What was measured:
[1] = test system: P. aeruginosa UCBPP-PA14 wild-type; type: cell-based, Pseudomonas aeruginosa; settings: standard twofold dilution MIC in 96-well plates
[2] = test system: P. aeruginosa UCBPP-PA14 wild-type and tssK-2 mutant (1:1); type: cell-based, Pseudomonas aeruginosa
[3] = test system: Pseudomonas aeruginosa UCBPP-PA14 wild-type
P. aeruginosa = settings: cited from earlier work

Compound	MIC, Without Spermidine [1]	MIC, With 4 mM Spermidine ([1]; 4 mM spermidine)	fate of tssK-2 mutant in 1:1 mixture with wild-type [2]	MIC, BM2 (H) ([3]; BM2 with high (2 mM) Mg2+, MIC = no growth after 10 h) [µg/mL]	MIC, BM2 (L) ([3]; BM2 with low (20 μM) Mg2+, 0.002% tween 80, 0.2% rhamnose, MIC = no growth after 10 h) [µg/mL]	Sub-MIC (L) ([3]; BM2 with low (20 μM) Mg2+, concentration that slowed down growth by 30% compared to untreated control) [µg/mL]	MIC90 (P. aeruginosa) [µg/mL]
CC(C)CCCCC(=O)N[C@@H](CCN)C(=O)N[C@H](C(=O)N[C@@H](CCN)C(=O)N[C@H]1CCNC(=O)[C@H]([C@@H](C)O)NC(=O)[C@H](CCN)NC(=O)[C@H](CCN)NC(=O)[C@H](CC(C)C)NC(=O)[C@@H](Cc2ccccc2)NC(=O)[C@H](CCN)NC1=O)[C@@H](C)O [PMB, polymyxin B2] (HELM PEPTIDE1{[CC(C)CCCCC(=O)[*:2]].[Dab].T.[Dab].[Dab].[Dab].[dF].L.[Dab].[Dab].T}$PEPTIDE1,PEPTIDE1,5:R3-11:R2$$$V2.0)	50	>100	out-competed	0.3 (≈ 0.252 µM)	32 (≈ 26.9 µM)	2	
murepavadin							2
